# Values of other authors, collected in patent US20230172880A1, “FAST-ACTING TOPICAL ANESTHETIC FORMULATIONS” (priority 2020, published 2023).
# Details: administered directly into tissue
compound,measurement,value
CCN(CC)CC(=O)Nc1c(C)cccc1C [lidocaine],onset,less than 2 min
